Data as given in PubChem BioAssay AID1053172 (The Scripps Research Institute Molecular Screening Center, 2014).
Activity calls are given as the source filed them. The rule behind the calls is not given here.

Molecular target: HIV-1 integrase / human LEDGF/p75 complex
Test: inhibitors of HIV-1 IN-LEDGF/p75 DNA integration, dose response, biochemical, TR-FRET (AID 1053172)

IC50	Structure (SMILES)
4.23 µM	O=c1c(-c2c(O)cc(O)c3c(=O)cc(-c4ccc(O)cc4)oc23)c(-c2ccc(O)cc2)oc2cc(O)cc(O)c12
8.37 µM	O=C(CCCN1C(=O)/C(=C/c2ccco2)SC1=S)Nc1ccccc1C(=O)O
inactive	N#Cc1c(NC(=O)CSc2ncnc3sccc23)oc(-c2ccco2)c1-c1ccco1
